Source: article PMC11995724, “Antibiotic target discovery by integrated phenotypic and activity-based profiling of electrophilic fragments” (Cell chemical biology, 2025)
Converted amounts (≈) assume the structure as drawn.

Tests used:
in vitro = details: human, hek293t cells
Sf_FabH = target: T1, Sf_FabH (Shigella flexneri, UniProt Q83RS8); experiment: in-gel fluorescence, competition with 5-TMRIA labelling; assay type: binding; details: covalent; 1.5 uM protein in PBS, 1 h, 22 °C
T1 construct: gene fabH; recombinant, N-terminal His-tag, pET28a(+), E. coli BL21(DE3), Ni-NTA and Superdex 75
T1 sequence (Q83RS8 1-317): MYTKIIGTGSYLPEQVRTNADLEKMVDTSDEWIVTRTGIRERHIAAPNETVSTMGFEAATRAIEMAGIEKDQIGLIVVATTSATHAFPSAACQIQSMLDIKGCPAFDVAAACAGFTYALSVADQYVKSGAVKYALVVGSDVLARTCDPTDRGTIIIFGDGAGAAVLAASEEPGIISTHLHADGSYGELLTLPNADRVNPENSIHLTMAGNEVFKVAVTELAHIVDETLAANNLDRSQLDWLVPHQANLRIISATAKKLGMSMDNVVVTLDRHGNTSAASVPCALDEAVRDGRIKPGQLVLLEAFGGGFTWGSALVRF

[1] = system: T2, Staphylococcus aureus SAD30; experiment: microbe, parasite or virus in culture; set-up: species or system bacteria in LB, TSB or NB; broth microdilution MIC, OD600, lowest concentration with no growth
T2 construct: SAD30
Protocol: The minimum inhibitory concentrations (MICs) of compounds were measured using the broth microdilution method.[10] One stab using 10 µL tip from bacteria glycerol stock was inoculated into 5 mL of LB supplemented with selection antibiotics (Kanamycin for Keio collections and chloramphenicol for ASKA collections), and the culture was incubated at 37°C with shaking overnight. The overnight culture was diluted 1:10000 (~5 × 10^5 CFU/mL) and then dispensed in to a 96-well plate containing serial dilutions of indicated compounds in DMSO. The plate was incubated at 37°C for 16–20 h with shaking at 80 rpm and the OD600 was measured using Cytation 5 plate reader (BioTek). MIC was determined as the lowest concentration for which no bacterial growth was observed. LB was used as the growth media for all the bacteria strains unless otherwise mentioned. For S. aureus and A. baumannii strains, tryptic soy broth (TSB, BD, DF0370-17-3) was used as the growth media instead of LB. For P. aeruginosa and K. pneumoniae strains, nutrient broth (NB, RPI, N15100) was used as growth media. All MIC measurements were performed in at least biological duplicates.

S. aureus FabH = target: T3, S. aureus FabH (Staphylococcus aureus, UniProt Q6GAU3); experiment: in vitro targeting of purified protein (method not given); assay type: binding
T3 construct: recombinant, N-terminal His-tag, pET28a(+), E. coli BL21(DE3)
T3 sequence (Q6GAU3 1-313): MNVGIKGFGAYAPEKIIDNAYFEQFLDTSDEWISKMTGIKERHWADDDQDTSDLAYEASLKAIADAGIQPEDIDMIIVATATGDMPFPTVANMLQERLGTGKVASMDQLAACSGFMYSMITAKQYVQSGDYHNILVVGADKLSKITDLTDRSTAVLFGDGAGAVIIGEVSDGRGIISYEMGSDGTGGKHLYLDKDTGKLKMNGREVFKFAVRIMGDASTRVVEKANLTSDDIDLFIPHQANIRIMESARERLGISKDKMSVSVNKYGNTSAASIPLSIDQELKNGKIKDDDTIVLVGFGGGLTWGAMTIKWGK
Excerpt: in vitro targeting of purified protein (method not told in the main text) on S. aureus FabH | The S. aureus FabH […] can also be targeted by 10-F05 in vitro

Sf_PdxY = target: T4, Sf_PdxY (Shigella flexneri, UniProt Q83KY1); experiment: in-gel fluorescence, competition with 5-TMRIA labelling; assay type: binding; details: covalent; 1.5 uM protein in PBS, 1 h, 22 °C
T4 construct: gene pdxY; recombinant, N-terminal His-tag, pET28a(+), E. coli BL21(DE3), Ni-NTA and Superdex 75
T4 sequence (Q83KY1 1-287): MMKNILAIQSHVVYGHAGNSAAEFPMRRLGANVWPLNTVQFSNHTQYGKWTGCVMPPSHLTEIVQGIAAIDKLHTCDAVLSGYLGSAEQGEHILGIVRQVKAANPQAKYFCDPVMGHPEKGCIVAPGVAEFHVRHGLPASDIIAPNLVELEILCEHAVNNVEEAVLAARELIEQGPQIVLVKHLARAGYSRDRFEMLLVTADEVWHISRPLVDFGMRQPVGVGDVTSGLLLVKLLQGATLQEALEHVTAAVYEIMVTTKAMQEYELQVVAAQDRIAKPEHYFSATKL

O=C(CCl)c1cn(-c2ccc(F)cc2)nn1 [10-F05]
viability at 48 h, 25 µM (in vitro): 89.9% | in-gel fluorescence, competition with 5-TMRIA labelling (Sf_FabH): preincubation with 10-F05 resulted in a dose-dependent decrease in 5-TMRIA labeling of these proteins | MIC [1]: 10 µM (≈ 2.4 µg/mL) | in vitro targeting of purified protein (method not given) (S. aureus FabH): The S. aureus FabH [...] can also be targeted by 10-F05 in vitro | in-gel fluorescence, competition with 5-TMRIA labelling (Sf_PdxY): preincubation with 10-F05 resulted in a dose-dependent decrease in 5-TMRIA labeling of these proteins

c1ccc(CSSCc2ccccc2)cc1 [10-O21, [(benzyldisulfanyl)methyl]benzene]
viability at 48 h, 25 µM (in vitro): 100%

O=C(Nc1nccs1)N1CCSSCC1 [10-O22, N-(1,3-thiazol-2-yl)-1,2,5-dithiazepane-5-carboxamide]
viability at 48 h, 25 µM (in vitro): 113%

CC(=O)NCCc1ccc(C(=O)CCl)s1 [10-P03, N-{2-[5-(2-chloroacetyl)thiophen-2-yl]ethyl}acetamide]
viability at 48 h, 25 µM (in vitro): 64.9%

O=C(CCl)c1c(-c2ccc(F)cc2)[nH]c2ccccc12 [10-P04, 2-chloro-1-[2-(4-fluorophenyl)-1H-indol-3-yl]ethan-1-one]
viability at 48 h, 25 µM (in vitro): 4.16%

Cn1c(N)c(N2C(=O)C=CC2=O)c(=O)[nH]c1=O [10-P05, 6-amino-5-(2,5-dioxo-2,5-dihydro-1H-pyrrol-1-yl)-1-methyl-1,2,3,4-tetrahydropyrimidine-2,4-dione]
viability at 48 h, 25 µM (in vitro): 124%

Nc1c(C(=O)CCl)c(=O)[nH]c(=O)n1C1CC1 [10-P06, 6-amino-5-(2-chloroacetyl)-1-cyclopropyl-1,2,3,4-tetrahydropyrimidine-2,4-dione]
viability at 48 h, 25 µM (in vitro): 111%

O=C1C=CC(=O)N1c1cnccn1 [10-P07, 1-(pyrazin-2-yl)-2,5-dihydro-1H-pyrrole-2,5-dione]
viability at 48 h, 25 µM (in vitro): 103%

CCn1nc(C)c(C(=O)CCl)n1 [10-P08, 2-chloro-1-(2-ethyl-5-methyl-2H-1,2,3-triazol-4-yl)ethan-1-one]
viability at 48 h, 25 µM (in vitro): 27.2%

O=C(Nc1cccc(-c2nnco2)c1)N1CCSSCC1 [10-P09, N-[3-(1,3,4-oxadiazol-2-yl)phenyl]-1,2,5-dithiazepane-5-carboxamide]
viability at 48 h, 25 µM (in vitro): 116%

CC(C)(C)C(=O)NCc1ccc(C(=O)CCl)s1 [10-P10, N-{[5-(2-chloroacetyl)thiophen-2-yl]methyl}-2,2-dimethylpropanamide]
viability at 48 h, 25 µM (in vitro): 12.3%

O=C1C=CC(=O)N1c1ccc(OC(F)F)cc1 [10-P11, 1-[4-(difluoromethoxy)phenyl]-2,5-dihydro-1H-pyrrole-2,5-dione]
viability at 48 h, 25 µM (in vitro): 102%

CC(Cl)C(=O)c1ccc2c(c1)NC(=O)CO2 (stereo not drawn) [10-P12, 6-(2-chloropropanoyl)-3,4-dihydro-2H-1,4-benzoxazin-3-one]
viability at 48 h, 25 µM (in vitro): 105%

COc1ccc([N+](=O)[O-])cc1N1C(=O)C=CC1=O [10-P13, 1-(2-methoxy-5-nitrophenyl)-2,5-dihydro-1H-pyrrole-2,5-dione]
viability at 48 h, 25 µM (in vitro): 102%

N#CC(C(=O)CCl)=C1NC(=O)c2ccccc2N1 [10-P14, 4-chloro-3-oxo-2-(4-oxo-1,2,3,4-tetrahydroquinazolin-2-ylidene)butanenitrile]
viability at 48 h, 25 µM (in vitro): 110%

O=C1C=CC(=O)N1c1cccc([N+](=O)[O-])c1 [10-P15, 1-(3-nitrophenyl)-2,5-dihydro-1H-pyrrole-2,5-dione]
viability at 48 h, 25 µM (in vitro): 92.8%

Cc1cc(C(=O)CCl)c(C)n1Cc1ccccc1Cl [10-P16, 2-chloro-1-{1-[(2-chlorophenyl)methyl]-2,5-dimethyl-1H-pyrrol-3-yl}ethan-1-one]
viability at 48 h, 25 µM (in vitro): 0.942%

Cc1cc(C(=O)CCl)c(C)n1C(C)c1ccccc1 (stereo not drawn) [10-P17, 2-chloro-1-[2,5-dimethyl-1-(1-phenylethyl)-1H-pyrrol-3-yl]ethan-1-one]
viability at 48 h, 25 µM (in vitro): 113%

CN1C(=C(C#N)C(=O)CCl)N(C)c2ccccc21 [10-P18, 4-chloro-2-(1,3-dimethyl-2,3-dihydro-1H-1,3-benzodiazol-2-ylidene)-3-oxobutanenitrile]
viability at 48 h, 25 µM (in vitro): 89.4%

O=S(=O)(CC=C(Cl)Cl)N1CCSSCC1 [10-P19, 5-(3,3-dichloroprop-2-ene-1-sulfonyl)-1,2,5-dithiazepane]
viability at 48 h, 25 µM (in vitro): 127%

CN(C)C1=NC(N)=NC(=C(C#N)C(=O)CCl)N1 [10-P20, 2-[4-amino-6-(dimethylamino)-1,2-dihydro-1,3,5-triazin-2-ylidene]-4-chloro-3-oxobutanenitrile]
viability at 48 h, 25 µM (in vitro): 104%

COc1ccccc1CN1C(=O)C=CC1=O [10-P21, 1-[(2-methoxyphenyl)methyl]-2,5-dihydro-1H-pyrrole-2,5-dione]
viability at 48 h, 25 µM (in vitro): 105%

CC(=O)c1c(C)[nH]c(C(=O)C(C)Cl)c1C (stereo not drawn) [10-P22, 1-(4-acetyl-3,5-dimethyl-1H-pyrrol-2-yl)-2-chloropropan-1-one]
viability at 48 h, 25 µM (in vitro): 103%
